Measurements: patent US11331364B2, “Use for JNK inhibitor molecules for treatment of various diseases” (Xigen Inflammation Ltd., priority 2014, dated 2022)
“Also recorded” adds a separate entry of the source. Square brackets hold non-standard residues; d marks the D form. Peptide text beside a SMILES is read from it.

What was measured:
[1] = test system: THP1 differentiated macrophages; assay: LPS-induced cytokine release in PMA differentiated THP1 macrophages (ELISA); assay type: cell-based, human
Protocol: In the following the procedure will be set forth describing how the released amount of several human cytokines after ligand induced secretion from human cells (Blood, WBC, PBMC, purified primary lymphocytes, cell lines, . . . ) was measured.
The technique used is a Sandwich ELISA, which allows measuring the amount of antigen between two layers of antibodies (i.e. capture and detection antibody). The antigen to be measured must contain at least two antigenic sites capable of binding to antibody, since at least two antibodies act in the sandwich. Either monoclonal or polyclonal antibodies can be used as the capture and detection antibodies in Sandwich ELISA systems. Monoclonal antibodies recognize a single epitope that allows fine detection and quantification of small differences in antigen. A polyclonal is often used as the capture antibody to pull down as much of the antigen as possible.
The method may be used to determine the effect of the JNK inhibitors of the present invention in vitro/cell culture. At non toxic doses, compound efficacy is indicated by the decrease of the cytokine levels (the variation of optical density (absorbance at 450 nm)) as compared to non-treated samples and is monitored by ELISA. Results are express in ng/ml.
In the following the procedure will be set forth describing how cytokine production from human PMA differentiated THP1 cells challenged by LPS for 6 h was induced in order to test the ability of JNK inhibitors of the present invention, in particular of a JNK inhibitor with SEQ ID NO: 172, to reduce stimulation-induced cytokine release. THP1 cells were stimulated ex-vivo by different ligands for the readout of cytokine release. At non toxic doses, JNK inhibitor efficacy is indicated by the decrease of the cytokine levels as compared to non-treated samples and is monitored by ELISA. The toxicity of the compound are evaluated by the reduction of a tretazolium salt (MTS) to formazan, giving a purple colour.
The cells were counted. […]

[2] = test system: Primary Rat Whole Blood Cells; assay: LPS-induced TNFα release in rat whole blood; assay type: cell-based; settings: LPS 3 ng/ml; 1, 3, 10 μM
Protocol: Given are the results for the control, 1 μM of SEQ ID NO: 172, 3 μM of SEQ ID NO: 172, and 10 μM of SEQ ID NO: 172 at different levels of LPS (ng/ml).
Whole blood is collected from anesthetized rat or human healthy volunteers using a venipuncture connected to a pre-labeled vacuum tube containing sodium citrate. Tubes are gently mixed by inversion 7-8 times; and are then kept at RT until stimulation. JNK inhibitor of SEQ ID NO: 172 is prepared 6 times concentrated in PBS, and 30 μl/well of mix is added into 96-well plate. Whole blood is diluted by 1:2 in PBS and 120 μl of diluted blood is added in each well where either PBS alone or JNK inhibitor of SEQ ID NO: 172 has been previously added. Whole blood is incubated at 37° C.; 85 rpm (Stuart Orbital incubator SI500) for 60 min. Activators (LPS) are the prepared, 30 μl/well of LPS, 6 times concentrated. After 60 min incubation, LPS is added to the blood, blood is mixed by pipetting up and down, and then kept for 4 h under agitation (85 rpm), at 37° C. After the 4 h incubation, the plates are centrifuged at about 770 g, 4° C. for 15 min in a pre-cooled centrifuge. […] Cytokine (IL-6, IL-2, IFNγ and TNFα) were then measured using standard Elisa kits (e.g. from R&D Systems: DuoSet Elisas; or from BD Biosciences: BD Opteia Set Elisa). Results are expressed as pg/ml of supernatant of the measured cytokine.

primary human T-cells = assay: IL-2 secretion by primary human T-cells; assay type: cell-based
Text: The JNK inhibitors used are indicated by their SEQ ID NO: 172 and 197.

CC(C)C[C@H](NC(=O)[C@H](CC(N)=O)NC(=O)[C@H](CC(C)C)NC(=O)[C@@H](NC(=O)[C@@H](C)NC(=O)[C@@H]1CCCN1C(=O)[C@H](CCCNC(=N)N)NC(=O)[C@@H](CCCCN)NC(=O)[C@@H]1CCCN1C(=O)[C@H](CCCNC(=N)N)NC(=O)[C@@H](CCCNC(=N)N)NC(=O)[C@H](CCCNC(=N)N)NC(=O)[C@H](CCCNC(=N)N)NC(=O)[C@H](CCC(N)=O)NC(=O)[C@@H](CCCNC(=N)N)NC(=O)[C@H](CCCNC(=N)N)NC(=O)[C@H](CCCCN)NC(=O)[C@H](CCCCN)NC(=O)[C@H](N)CCCNC(=N)N)[C@@H](C)O)C(=O)N[C@H](Cc1ccccc1)C(N)=O [SEQ ID NO: 172, rKKRrQRRrRPkRPaTLNLf] (H-[dR]KKR[dR]QRR[dR]RP[dK]RP[dA]TLNL[dF]-NH2; N-terminus assumed) was tested, and the “LPS-induced IL6 release” value ([1]; LPS added for 6 h) was “higher potency than D-TAT-IB1 (SEQ ID NO: 197), dTAT (SEQ ID NO: 45) and SP 600125; also recorded: higher potency than D-TAT-IB1 (SEQ ID NO: 197) and L-TAT-IB1 (SEQ ID NO: 196)”, the “LPS-induced TNFα release” value ([1]; PMA/THP1 differentiated macrophages, LPS) was “higher potency than D-TAT-IB1 (SEQ ID NO: 197), dTAT (SEQ ID NO: 45) and SP 600125; also recorded: higher potency than D-TAT-IB1 (SEQ ID NO: 197) and L-TAT-IB1 (SEQ ID NO: 196)” and the “LPS-induced cytokine and chemokine release” value ([1]; THP1-PMA-differentiated macrophages, TNF, IL 6, MCP1, 6 h LPS) was “blocks LPS-induced cytokine and chemokine release”. For the same compound, the “LPS-induced TNFα release” value [2] was “blocks LPS-induced TNFα release”, the “IL-2 secretion in response to CD3/CD28 stimulation” value (primary human T-cells) was “blocks IL-2 secretion” and the “IL-2 secretion in response to PMA/Ionomycin” value (primary human T-cells) was “blocks IL-2 secretion”.
